From paper PMC7822874, “Chemoprotective antimalarials identified through quantitative high-throughput screening of Plasmodium blood and liver stage parasites” (Scientific Reports, 2021)
Like-named read-outs stand apart in the source and are kept apart here.

System: Plasmodium falciparum Dd2 asexual blood stage parasites
Test: microbe, parasite or virus in culture
Parameters: species or system Plasmodium falciparum Dd2 in human erythrocytes; single determination (one 11-point concentration-response curve)
Conditions: Plasmodium falciparum, DD2, Erythrocyte, 72 h

COc1ccc2nc(C[C@@H]3C[C@@H](C(C)C)[C@H](CNCc4cccnc4)C=C3C)[nH]c2n1 [NCGC00401578-01]
AC50 (read-out: AC50): 19.3 µM

Cc1ccc(S(=O)(=O)Nc2ccc(-c3cn4ccc(C)cc4n3)cc2)cc1 [MLS000579534-01]
AC50 (read-out: AC50): 6.68 µM

CCC(CC)c1cc([C@H]2CN3CC[C@H]2C[C@@H]3CNC(=O)c2ccc(C)cc2)nc(-c2ccncc2)n1 [NCGC00400216-01]
AC50 (read-out: AC50): 10.6 µM

CCCn1c(C)cnc1CC1CCN([S+](=O)([O-])c2ccc3c(c2)CCC3)C1 (stereo not shown) [NCGC00464176-01]
AC50 (read-out: AC50): 9.44 µM

Cc1nn(CCC(=O)N[C@H]2CC[C@H]2NC2CCCCC2)c(C)c1C [NCGC00442733-01]
AC50 (read-out: AC50): 6.68 µM

CCn1cc(CN2CC(Oc3ccc(-c4noc(-c5ccncc5)n4)cc3)C2)cn1 [NCGC00458017-01]
AC50 (read-out: AC50): 13.3 µM

CCOc1ccc(-c2nonc2NC(=O)c2ccc(C)cc2)cc1OCC [NCGC00116031-01]
AC50 (read-out: AC50): 1.68 µM

COc1ccc(CCN(C)/C(S)=N/c2cccc(C)c2)cc1OC [MLS001177860-01]
AC50 (read-out: AC50): 2.11 µM

CC(C)(Oc1nn(CC2CC2)c2ccc(CN3CCCC3)cc12)C(N)=O [NCGC00419502-01]
AC50 (read-out: AC50): 13.7 µM

O=C(NCCN1CCCCC1)c1ccc(-c2nnc3ccc(NC(=O)C4CCC4)cn23)cc1 [NCGC00429914-01]
AC50 (read-out: AC50): 13.3 µM

O=c1oc2ccccc2c(N2CCCCC2)c1CN1CCCC1 [MLS000525481-01]
AC50 (read-out: AC50): 9.44 µM

Cc1cc(O)c(-c2ccnc3cc(-c4ccccc4)nn23)cc1Cl [NCGC00164840-01]
AC50 (read-out: AC50): 1.88 µM

CCc1c(C)c2ccc(O)c(CN3CCN(c4ccccc4)CC3)c2oc1=O [NCGC00119657-01]
AC50 (read-out: AC50): 2.37 µM

CCC1(N2CCN(C)CC2)CCN([S+](=O)([O-])c2ccccc2)C1 (stereo not shown) [NCGC00472095-01]
AC50 (read-out: AC50): 6.68 µM

N#Cc1cccc(C(=O)N2CCCN(Cc3ccncc3)C(c3ccccc3)CC(=O)NCC2)c1 (stereo not shown) [NCGC00467150-01]
AC50 (read-out: AC50): 7.5 µM

Cc1cc(C)c(S(=O)(=O)n2ccc(-c3ccc(OCCN(C)c4ccccn4)cc3)n2)c(C)c1 [MLS000331310-01]
AC50 (read-out: AC50): 7.5 µM

CC1CCN(C(=O)C[C@@H]2c3nc(NC(=O)c4cccc(F)c4)sc3C[C@@H]3[C@](C)(CO)[C@H](O)CC[C@]32C)CC1 [NCGC00394310-01]
AC50 (read-out: AC50): 10.6 µM

c1ccc(Cn2c(Sc3nnnn3-c3ccccc3)nnc2-c2ccccc2)cc1 [MLS000052243-01]
AC50 (read-out: AC50): 7.5 µM

O[C@H]1CC[C@@H](Cc2cc(COc3ccccc3)on2)O[C@@H]1CNCc1cccc(Cl)c1 [NCGC00393311-01]
AC50 (read-out: AC50): 2.11 µM

CS(=O)(=O)c1ccc(C(=O)Nc2ccc(-c3nc4ccccc4[nH]3)cc2)cc1 [MLS001166841-01]
AC50 (read-out: AC50): 7.5 µM

CCCCC(=O)Nc1nc(C)c(-c2csc(Nc3cc(OC)ccc3OC)n2)s1 [MLS000561609-01]
AC50 (read-out: AC50): 9.44 µM

CCC(CC)c1cc([C@H]2CN3CC[C@H]2C[C@@H]3CNC(=O)c2ccccc2)nc(-c2ccncc2)n1 [NCGC00400223-01]
AC50 (read-out: AC50): 10.6 µM

Cc1noc(C)c1-c1cc2cc(CN(C)C)oc2c(NCc2cccnc2)n1 [NCGC00417547-01]
AC50 (read-out: AC50): 1.22 µM

CC(C)c1nc2c(c(-c3ccc(O)cc3)n1)CN(Cc1cccc(F)c1)CC2 [NCGC00480376-01]
AC50 (read-out: AC50): 9.44 µM

CC(C)c1ccc(-c2noc(SCC(=O)N(C)c3ccc(F)cc3)n2)cc1 [NCGC00127932-01]
AC50 (read-out: AC50): 0.944 µM

NC1=NC(c2ccccc2C(F)(F)F)N(c2ccc(F)c(Cl)c2)C(N)=N1 (stereo not shown) [MLS001199775-01]
AC50 (read-out: AC50): 11.9 µM

Cc1c(Cl)cccc1Nc1nn2c(=O)c3ccc(C(=O)NCCc4ccccc4)cc3nc2s1 [NCGC00125565-01]
AC50 (read-out: AC50): 7.5 µM

CCOC(=O)C(C)/C(C)=N/N=C(\N)S (stereo not shown) [MLS000701955-01]
AC50 (read-out: AC50): 2.66 µM

O=C(Nc1ccc2c(N3CCOCC3)ncnc2c1)c1cccc(Cl)c1 [NCGC00425551-01]
AC50 (read-out: AC50): 4.73 µM

COc1ccc(CN2CCC3(C2)C(NC2CCCCC2)=NC(=O)N3c2cccnc2)cc1 (stereo not shown) [NCGC00374261-01]
AC50 (read-out: AC50): 2.11 µM

Cc1ccccc1CN1C[C@@H]2C[C@@H](c3c[nH]nc3-c3ccccc3)N3CCC[C@@]23C1=O [MLS000735381-01]
AC50 (read-out: AC50): 15 µM

CC(C)(C)n1nnnc1C(c1cc2cc3c(cc2[nH]c1=O)OCO3)N1CCN(c2ccccc2)CC1 (stereo not shown) [MLS000072810-01]
AC50 (read-out: AC50): 7.5 µM

O=c1c([N+](=O)[O-])cccn1Cc1ccc(F)cc1Cl [MLS000728802-01]
AC50 (read-out: AC50): 4.73 µM

CCOc1ccc(C2C(C(=O)Nc3ccccc3)=C(C)N=c3sc(=Cc4cccc(OCC(=O)O)c4)c(=O)n32)cc1 (stereo not shown) [MLS000705052-01]
AC50 (read-out: AC50): 5.31 µM

COc1ccc([S+](=O)([O-])NC[C@H]2C[C@@H]3CC[N@]2C[C@@H]3CN(C)Cc2ccccc2)cc1 [NCGC00400093-01]
AC50 (read-out: AC50): 4.73 µM

COc1ccc(Nc2c(-c3cc(Br)ccc3O)nc3ncccn23)cc1OC [NCGC00107676-01]
AC50 (read-out: AC50): 4.73 µM

COc1cc(C(=O)OCC(=O)N2CCCCC2C)cc(NC(=O)c2cccs2)c1OC (stereo not shown) [MLS001003405-01]
AC50 (read-out: AC50): 0.473 µM

N=c1c2c3c(sc2ncn1Nc1ccccc1)CCC3 [MLS000858994-01]
AC50 (read-out: AC50): 3.35 µM

Cn1cccc1CN1CCCC2(Cc3ccccc3CNC2=O)C1 (stereo not shown) [NCGC00377565-01]
AC50 (read-out: AC50): 13.2 µM

CC(C)c1ccccc1OCC(O)CN(CC(O)COc1cccc2ccccc12)C(C)C (stereo not shown) [MLS001179995-01]
AC50 (read-out: AC50): 2.37 µM

Cc1ccc(-n2cc(CNCCc3nc(C)c[nH]3)c(-c3ccc(F)cc3)n2)cc1 [MLS000735387-01]
AC50 (read-out: AC50): 15 µM

CCOC(=O)c1cccc(NC(=O)CCn2c(-c3ccc(F)cc3)cc(C(=O)OCC)c2C)c1 [NCGC00140860-01]
AC50 (read-out: AC50): 0.075 µM

Cc1cc(N2CCC(C)CC2)nc(-n2nc(C)cc2C)n1 [MLS000109839-01]
AC50 (read-out: AC50): 2.99 µM

CCN1CCN(c2cc(C)c3cc(NC(=O)c4ccc(Br)o4)ccc3n2)CC1 [MLS000878990-01]
AC50 (read-out: AC50): 6.68 µM

O=C1CC2(CCN(Cc3ccccc3)CC2)Oc2ccccc21 [NCGC00476829-01]
AC50 (read-out: AC50): 13.7 µM

Cc1ccc(N(C)C2=NC(=O)CS2)cc1Cl [MLS001164579-01]
AC50 (read-out: AC50): 9.44 µM

COC(=O)c1cnn(-c2ccc(C(=O)Nc3ccc(OC(F)(F)F)cc3)cc2)c1N [NCGC00137710-01]
AC50 (read-out: AC50): 4.73 µM

Cc1ccc(C(=O)N/N=C/c2ccc([N+](=O)[O-])s2)cc1 [MLS000519463-01]
AC50 (read-out: AC50): 5.96 µM

COc1cccc(C(=O)N2CCC(N3C[C@H](O)C[C@H]3C(=O)N3CC=C(c4ccccc4)CC3)CC2)c1 [NCGC00460071-01]
AC50 (read-out: AC50): 9.44 µM

O=[N+]([O-])c1ccc([S+](=O)([O-])N2CCn3cccc3C2c2ccc(Br)cc2)cc1 (stereo not shown) [NCGC00137374-01]
AC50 (read-out: AC50): 5.96 µM

COc1ccc(NC(=O)O[C@@H]2CC[C@]3(C)C(CC[C@@H](O)[C@H]3CC(=O)NCc3ccccc3OC)[C@]2(C)CO)cc1 (stereo partly shown) [NCGC00398535-01]
AC50 (read-out: AC50): 6.68 µM

Cc1ccccc1CN1C(=O)C(C)N=C(c2ccccc2)c2ccccc21 (stereo not shown) [NCGC00140509-01]
AC50: 15 µM

CCCCN(CCCC)CC(O)Cn1cc(/C=C/C(=O)c2ccccc2)c2ccccc21 (stereo not shown) [NCGC00114887-01]
AC50 (read-out: AC50): 1.68 µM

COc1ccc(N2CCN(C(=O)CSc3nc(-c4ccc(C(C)C)cc4)no3)CC2)cc1 [NCGC00127936-01]
AC50 (read-out: AC50): 0.531 µM

Cc1ccc(C)c(-n2c(-c3ccc(Br)cc3)csc2=NC(=O)c2ccccc2F)c1 [MLS000766129-01]
AC50 (read-out: AC50): 4.73 µM

CCc1c(C)c2ccc3c(c2oc1=O)CN(Cc1ccccc1)CO3 [NCGC00125086-01]
AC50 (read-out: AC50): 2.11 µM

Cc1ccccc1NC(=O)c1c(C)oc2ccc(O)c(CN(C)Cc3ccccc3)c12 [NCGC00115709-01]
AC50 (read-out: AC50): 2.37 µM

CCc1ccc(-c2nn(CC(=O)NC3CCCCC3)c3c2cnc2ccc(OC)cc23)cc1 [NCGC00130391-01]
AC50 (read-out: AC50): 9.44 µM

OC(c1ccc(Cl)cc1)C(CN1CCOCC1)c1ccccc1 (stereo not shown) [MLS001173582-01]
AC50 (read-out: AC50): 2.99 µM

O=C(CN1CCN(C(=O)c2ccco2)CC1)Nc1cc(C(F)(F)F)ccc1Cl [MLS000047443-01]
AC50 (read-out: AC50): 7.5 µM

CCc1cccc(C)c1NC(=O)CN1CCN(S(=O)(=O)c2ccc(C(C)(C)C)cc2)CC1 [MLS001070982-01]
AC50 (read-out: AC50): 8.41 µM

CC(=O)Nc1ccc(NC(=O)c2c(C)oc3ccn(Cc4ccc(F)cc4)c(=O)c23)cc1 [NCGC00433889-01]
AC50 (read-out: AC50): 10.6 µM

COc1ccc(Nc2cc(C)c3cc(NC(=O)Cc4c(F)cccc4Cl)ccc3n2)cc1 [NCGC00124312-01]
AC50 (read-out: AC50): 5.31 µM

CCc1ccc(NC(=O)CSc2nc3[nH]nc(C)c3c(=N)n2-c2ccc(C)cc2)cc1 [NCGC00140694-01]
AC50 (read-out: AC50): 6.68 µM

O=C(NCCc1ccncc1)c1ccc(-c2nnc3ccc(NC(=O)C4CCC4)cn23)cc1 [NCGC00429902-01]
AC50 (read-out: AC50): 2.99 µM

CC(C)CNC(=O)c1nc(-c2ccc(Cl)cc2)c2cnccn12 [NCGC00476461-01]
AC50 (read-out: AC50): 8.63 µM

COc1cc(C2CC(=O)Nc3cc4c(cc32)OCCO4)cc(Br)c1OC (stereo not shown) [NCGC00107055-01]
AC50 (read-out: AC50): 5.31 µM

CCN1CCN(c2cc(C)c3cc(NC(=O)c4cc(OC)cc(OC)c4)ccc3n2)CC1 [NCGC00103842-01]
AC50 (read-out: AC50): 3.35 µM

O=C(NCCc1cccnc1)c1ccc(-c2nnc3ccc(NC(=O)C4CCC4)cn23)cc1 [NCGC00429899-01]
AC50 (read-out: AC50): 6.68 µM

COc1ccc(S(=O)(=O)N2CCN(/C(S)=N/CC3CCCO3)CC2)cc1OC (stereo not shown) [MLS001035648-01]
AC50 (read-out: AC50): 6.68 µM

CC(=O)c1ccc(N2CCN(c3nc4c([S+](=O)([O-])c5ccccc5)nnn4c4ccc(Cl)cc34)CC2)cc1 [NCGC00112340-01]
AC50 (read-out: AC50): 3.35 µM

COc1ccc(C)cc1NC(=O)N1CCCC2(C1)Nc1cccnc1N=C2NC1CCCC1 (stereo not shown) [NCGC00440441-01]
AC50 (read-out: AC50): 6.68 µM

COc1ccc(Oc2c(C(F)(F)F)oc3c(CN4CCCC(C)C4)c(O)ccc3c2=O)cc1 (stereo not shown) [NCGC00101510-01]
AC50 (read-out: AC50): 2.37 µM

COc1ccccc1-c1nnc2n1C(C(=O)NCCc1ccc(Cl)cc1)CC2 (stereo not shown) [NCGC00375512-01]
AC50 (read-out: AC50): 3.35 µM

Cn1cccc1CN1CCC(N2CC(OCC3CC3)C23CCCCC3)CC1 (stereo not shown) [NCGC00463411-01]
AC50 (read-out: AC50): 7.5 µM

CC(=O)C1=C(c2ccccc2)N(C(C)=O)n2c(nnc2C2CCCCC2)S1 [NCGC00137174-01]
AC50 (read-out: AC50): 4.22 µM

Cc1noc(C)c1-c1cc2cc(CN(C)C)oc2c(NCCOc2ccccc2)n1 [NCGC00417493-01]
AC50 (read-out: AC50): 15.3 µM

COC(=O)c1cc(O)cc(OC)c1Oc1cc(C)cc(O)c1C(=O)O [MLS000863583-01]
AC50 (read-out: AC50): 4.22 µM

CC1=C[C@@H](CNC(C)C)[C@H](C(C)C)C[C@H]1Cc1nnc(-c2ccc(C)cc2)o1 [NCGC00394176-01]
AC50 (read-out: AC50): 13.7 µM
